One block for each compound: values may come before it. Calls of active or inactive are those of the source.
Tests used:
[1] = molecular target: Voltage-dependent T-type calcium channel subunit alpha-1H (Homo sapiens, UniProt O95180); format: functional;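 note: channel activity triggered by adding a high calcium stimulation buffer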
[2] = NIH-3T3 fibroblast cytotoxicity, dose response, cytotoxicity control, cell-based, fluorescence, Alamar Blue, secondary assay (AID 2327); format: functional;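 note: NIH-3T3 mouse fibroblasts cultured with fluconazole at 8 µg/mL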
[3] = C. albicans growth with fluconazole, confirmation, fluorescence, retest (AID 2467); format: functional, cell-based
[4] = molecular target: T1, Short transient receptor potential channel 4 (Mus musculus, UniProt Q9QUQ5); experiment: mouse TRPC4 channel activators, dose response, cell-based, HEK293 TRPC4/mu-opioid, Fluo-4 calcium (AID 434937); format: functional
T1 sequence (Q9QUQ5 whole entry): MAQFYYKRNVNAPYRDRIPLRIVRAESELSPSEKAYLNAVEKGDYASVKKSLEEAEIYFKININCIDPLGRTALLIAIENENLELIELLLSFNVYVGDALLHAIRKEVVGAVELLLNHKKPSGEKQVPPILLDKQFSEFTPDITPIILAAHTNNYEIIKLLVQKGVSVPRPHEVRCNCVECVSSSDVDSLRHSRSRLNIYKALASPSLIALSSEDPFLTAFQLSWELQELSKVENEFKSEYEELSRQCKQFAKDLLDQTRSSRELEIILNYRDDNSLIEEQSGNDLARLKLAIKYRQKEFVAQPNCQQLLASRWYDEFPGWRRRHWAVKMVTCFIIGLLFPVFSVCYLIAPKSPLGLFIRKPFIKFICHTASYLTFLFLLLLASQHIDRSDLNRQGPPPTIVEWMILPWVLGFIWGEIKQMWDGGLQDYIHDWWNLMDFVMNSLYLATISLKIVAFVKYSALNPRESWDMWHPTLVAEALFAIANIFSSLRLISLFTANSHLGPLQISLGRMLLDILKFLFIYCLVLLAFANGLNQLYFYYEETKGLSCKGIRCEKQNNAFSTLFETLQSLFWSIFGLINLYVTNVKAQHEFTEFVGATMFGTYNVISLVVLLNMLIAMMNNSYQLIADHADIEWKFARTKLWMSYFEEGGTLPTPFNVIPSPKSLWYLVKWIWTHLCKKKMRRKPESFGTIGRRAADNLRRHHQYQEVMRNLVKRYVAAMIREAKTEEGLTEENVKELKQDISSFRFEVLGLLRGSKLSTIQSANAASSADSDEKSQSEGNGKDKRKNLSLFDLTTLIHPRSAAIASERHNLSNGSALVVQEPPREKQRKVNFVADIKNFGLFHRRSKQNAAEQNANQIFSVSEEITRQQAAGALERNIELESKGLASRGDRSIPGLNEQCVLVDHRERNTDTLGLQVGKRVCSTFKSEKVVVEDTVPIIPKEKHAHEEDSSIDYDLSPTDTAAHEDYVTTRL

Cytochrome P450 3A4 = Cytochrome P450 3A4 (Homo sapiens, UniProt P08684); settings: Potency;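 note: confirmatory qHTS run detecting inhibitors and substrates of CYP3A4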
Chain of Cytochrome P450 3A4 (P08684 whole entry): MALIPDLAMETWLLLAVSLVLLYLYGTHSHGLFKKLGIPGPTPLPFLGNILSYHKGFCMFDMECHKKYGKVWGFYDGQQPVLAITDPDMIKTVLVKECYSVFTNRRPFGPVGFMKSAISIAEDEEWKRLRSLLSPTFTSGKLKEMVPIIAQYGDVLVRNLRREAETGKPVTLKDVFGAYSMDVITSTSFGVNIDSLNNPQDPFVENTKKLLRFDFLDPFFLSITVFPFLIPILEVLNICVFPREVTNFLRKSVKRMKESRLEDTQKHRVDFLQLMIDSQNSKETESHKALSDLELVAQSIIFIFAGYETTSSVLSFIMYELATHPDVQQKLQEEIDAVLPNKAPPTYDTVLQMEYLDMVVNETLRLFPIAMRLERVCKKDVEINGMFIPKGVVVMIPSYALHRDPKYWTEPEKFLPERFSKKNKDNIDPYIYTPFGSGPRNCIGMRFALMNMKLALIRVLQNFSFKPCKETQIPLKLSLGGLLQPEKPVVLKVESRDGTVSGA

[5] = molecular target: DNA dC->dU-editing enzyme APOBEC-3A (Homo sapiens, UniProt P31941); experiment: Dose Response confirmation of small molecule APOBEC3A DNA Deaminase Inhibitors via a fluorescence-based single-stranded DNA deaminase assay. [Related pubchem assays (depositor defined):AID493011, AID493024]; format: functional
Chain of DNA dC->dU-editing enzyme APOBEC-3A (P31941 whole entry): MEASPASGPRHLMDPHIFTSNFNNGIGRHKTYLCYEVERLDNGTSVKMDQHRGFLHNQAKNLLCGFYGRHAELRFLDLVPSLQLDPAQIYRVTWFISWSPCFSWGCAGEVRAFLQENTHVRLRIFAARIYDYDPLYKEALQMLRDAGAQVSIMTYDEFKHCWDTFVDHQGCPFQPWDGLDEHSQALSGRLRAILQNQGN

[6] = molecular target: DNA dC->dU-editing enzyme APOBEC-3G (Homo sapiens, UniProt Q9HC16); format: functional;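 note: Dose-response counterscreen measuring inhibition of APOBEC3G DNA deaminase activity, run while confirming APOBEC3A inhibitors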
Chain of DNA dC->dU-editing enzyme APOBEC-3G (Q9HC16 whole entry): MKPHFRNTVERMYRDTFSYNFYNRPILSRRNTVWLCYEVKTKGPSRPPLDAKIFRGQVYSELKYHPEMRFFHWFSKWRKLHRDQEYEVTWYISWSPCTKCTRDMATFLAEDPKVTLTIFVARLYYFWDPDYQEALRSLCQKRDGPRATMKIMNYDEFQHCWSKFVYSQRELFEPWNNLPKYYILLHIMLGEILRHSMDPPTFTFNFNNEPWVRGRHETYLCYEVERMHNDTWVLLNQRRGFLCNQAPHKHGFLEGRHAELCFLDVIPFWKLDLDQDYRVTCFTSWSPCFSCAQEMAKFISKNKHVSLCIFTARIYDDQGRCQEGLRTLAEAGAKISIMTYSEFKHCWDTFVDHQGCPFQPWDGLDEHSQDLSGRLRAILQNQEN

[7] = molecular target: T2, Acyl-homoserine lactone acylase PvdQ (Pseudomonas aeruginosa (strain LESB58), UniProt Q9I194); experiment: P. aeruginosa PvdQ acylase inhibitors, dose response, biochemical, fluorescence, plate reader and imaging, cherry-picks (AID 493231)
T2 sequence (Q9I194 whole entry): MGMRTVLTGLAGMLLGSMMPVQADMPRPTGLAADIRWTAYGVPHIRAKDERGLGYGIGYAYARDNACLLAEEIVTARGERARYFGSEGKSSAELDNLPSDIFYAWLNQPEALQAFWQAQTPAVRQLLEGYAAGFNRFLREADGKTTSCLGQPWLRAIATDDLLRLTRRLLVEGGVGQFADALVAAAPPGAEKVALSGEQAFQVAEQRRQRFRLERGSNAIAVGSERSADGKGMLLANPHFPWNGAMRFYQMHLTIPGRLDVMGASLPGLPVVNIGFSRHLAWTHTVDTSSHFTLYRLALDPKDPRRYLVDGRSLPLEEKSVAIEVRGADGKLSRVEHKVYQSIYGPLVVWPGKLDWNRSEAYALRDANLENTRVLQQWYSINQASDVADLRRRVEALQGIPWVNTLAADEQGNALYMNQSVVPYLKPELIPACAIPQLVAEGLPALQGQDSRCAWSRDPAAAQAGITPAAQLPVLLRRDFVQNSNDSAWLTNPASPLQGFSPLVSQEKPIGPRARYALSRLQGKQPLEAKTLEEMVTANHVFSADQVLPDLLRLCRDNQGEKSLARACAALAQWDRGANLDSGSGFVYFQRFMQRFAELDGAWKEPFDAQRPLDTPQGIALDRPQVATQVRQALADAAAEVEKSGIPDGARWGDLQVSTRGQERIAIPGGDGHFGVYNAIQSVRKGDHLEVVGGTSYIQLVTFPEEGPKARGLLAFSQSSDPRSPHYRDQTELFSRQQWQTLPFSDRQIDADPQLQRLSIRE

BJ [8] = experiment: cytotoxicity toward BJ-TERT fibroblasts, dose response, cell-based, RAS-independent, luminescence (AID 1933); format: functional, Homo sapiens; settings: Homo sapiens, BJ
BJ [9] = experiment: cells; format: functional, cell-based, Homo sapiens; settings: Homo sapiens, BJ
BJ [10] = experiment: cytotoxicity toward BJ-TERT-LT-ST fibroblasts, dose response, cell-based, RAS-independent, luminescence (AID 1935); format: functional, Homo sapiens; settings: Homo sapiens, BJ;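 note: BJ fibroblasts immortalized with TERT plus LT and ST oncogenes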
[11] = cytotoxicity toward DRD oncogenic fibroblasts, dose response, cell-based, non-viral oncogenic, luminescence (AID 1934); format: functional; settings: Homo sapiens
[12] = cytotoxicity in HEK-293T cells, dose response, cytotoxicity control for BCR NF-kB inhibitor project, luminescence, B-cell screen hits (AID 489021); format: functional, cell-based;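 note: HEK-293T cells carrying an NF-kB luciferase reporter; cells exposed to compound for about 14 hours before viability readout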
Leucine aminopeptidase = molecular target: T3, Leucine aminopeptidase (Plasmodium falciparum 3D7, UniProt Q8IL11); experiment: P. falciparum M17LAP inhibitors, primary screen, biochemical, fluorogenic H-Leu-NHMec substrate, 1536-well (AID 1619); format: functional
T3 sequence (Q8IL11 whole entry): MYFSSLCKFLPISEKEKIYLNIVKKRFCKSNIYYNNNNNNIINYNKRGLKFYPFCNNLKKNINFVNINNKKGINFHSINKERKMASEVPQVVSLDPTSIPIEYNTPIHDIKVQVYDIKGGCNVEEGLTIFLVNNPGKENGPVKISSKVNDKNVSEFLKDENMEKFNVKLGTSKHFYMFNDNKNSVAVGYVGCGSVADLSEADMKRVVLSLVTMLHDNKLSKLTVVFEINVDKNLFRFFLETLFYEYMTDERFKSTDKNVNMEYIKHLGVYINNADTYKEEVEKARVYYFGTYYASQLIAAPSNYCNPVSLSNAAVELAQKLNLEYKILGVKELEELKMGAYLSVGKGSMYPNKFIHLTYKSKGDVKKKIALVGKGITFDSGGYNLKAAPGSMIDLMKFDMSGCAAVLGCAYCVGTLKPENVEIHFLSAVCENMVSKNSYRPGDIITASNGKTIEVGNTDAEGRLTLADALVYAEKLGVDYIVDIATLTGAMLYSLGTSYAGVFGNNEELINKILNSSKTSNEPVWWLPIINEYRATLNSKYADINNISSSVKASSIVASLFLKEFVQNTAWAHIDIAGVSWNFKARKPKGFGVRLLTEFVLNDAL

Cytochrome P450 2C9 = Cytochrome P450 2C9 (Homo sapiens, UniProt P11712)
Chain of Cytochrome P450 2C9 (P11712 whole entry): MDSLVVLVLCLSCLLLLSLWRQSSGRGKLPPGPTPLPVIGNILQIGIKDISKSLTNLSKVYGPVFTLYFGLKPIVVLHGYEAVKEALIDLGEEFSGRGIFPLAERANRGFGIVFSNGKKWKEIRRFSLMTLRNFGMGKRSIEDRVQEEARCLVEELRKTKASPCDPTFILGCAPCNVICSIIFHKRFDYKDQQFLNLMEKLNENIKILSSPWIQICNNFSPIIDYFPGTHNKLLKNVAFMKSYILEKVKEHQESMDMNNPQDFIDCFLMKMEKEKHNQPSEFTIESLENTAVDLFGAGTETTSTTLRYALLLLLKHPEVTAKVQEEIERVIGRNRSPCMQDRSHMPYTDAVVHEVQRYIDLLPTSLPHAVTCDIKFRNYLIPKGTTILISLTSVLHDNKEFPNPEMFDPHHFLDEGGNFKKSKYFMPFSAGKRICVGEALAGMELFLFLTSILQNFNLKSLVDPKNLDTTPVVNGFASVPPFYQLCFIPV

Chain of Voltage-dependent T-type calcium channel subunit alpha-1H (O95180 whole entry): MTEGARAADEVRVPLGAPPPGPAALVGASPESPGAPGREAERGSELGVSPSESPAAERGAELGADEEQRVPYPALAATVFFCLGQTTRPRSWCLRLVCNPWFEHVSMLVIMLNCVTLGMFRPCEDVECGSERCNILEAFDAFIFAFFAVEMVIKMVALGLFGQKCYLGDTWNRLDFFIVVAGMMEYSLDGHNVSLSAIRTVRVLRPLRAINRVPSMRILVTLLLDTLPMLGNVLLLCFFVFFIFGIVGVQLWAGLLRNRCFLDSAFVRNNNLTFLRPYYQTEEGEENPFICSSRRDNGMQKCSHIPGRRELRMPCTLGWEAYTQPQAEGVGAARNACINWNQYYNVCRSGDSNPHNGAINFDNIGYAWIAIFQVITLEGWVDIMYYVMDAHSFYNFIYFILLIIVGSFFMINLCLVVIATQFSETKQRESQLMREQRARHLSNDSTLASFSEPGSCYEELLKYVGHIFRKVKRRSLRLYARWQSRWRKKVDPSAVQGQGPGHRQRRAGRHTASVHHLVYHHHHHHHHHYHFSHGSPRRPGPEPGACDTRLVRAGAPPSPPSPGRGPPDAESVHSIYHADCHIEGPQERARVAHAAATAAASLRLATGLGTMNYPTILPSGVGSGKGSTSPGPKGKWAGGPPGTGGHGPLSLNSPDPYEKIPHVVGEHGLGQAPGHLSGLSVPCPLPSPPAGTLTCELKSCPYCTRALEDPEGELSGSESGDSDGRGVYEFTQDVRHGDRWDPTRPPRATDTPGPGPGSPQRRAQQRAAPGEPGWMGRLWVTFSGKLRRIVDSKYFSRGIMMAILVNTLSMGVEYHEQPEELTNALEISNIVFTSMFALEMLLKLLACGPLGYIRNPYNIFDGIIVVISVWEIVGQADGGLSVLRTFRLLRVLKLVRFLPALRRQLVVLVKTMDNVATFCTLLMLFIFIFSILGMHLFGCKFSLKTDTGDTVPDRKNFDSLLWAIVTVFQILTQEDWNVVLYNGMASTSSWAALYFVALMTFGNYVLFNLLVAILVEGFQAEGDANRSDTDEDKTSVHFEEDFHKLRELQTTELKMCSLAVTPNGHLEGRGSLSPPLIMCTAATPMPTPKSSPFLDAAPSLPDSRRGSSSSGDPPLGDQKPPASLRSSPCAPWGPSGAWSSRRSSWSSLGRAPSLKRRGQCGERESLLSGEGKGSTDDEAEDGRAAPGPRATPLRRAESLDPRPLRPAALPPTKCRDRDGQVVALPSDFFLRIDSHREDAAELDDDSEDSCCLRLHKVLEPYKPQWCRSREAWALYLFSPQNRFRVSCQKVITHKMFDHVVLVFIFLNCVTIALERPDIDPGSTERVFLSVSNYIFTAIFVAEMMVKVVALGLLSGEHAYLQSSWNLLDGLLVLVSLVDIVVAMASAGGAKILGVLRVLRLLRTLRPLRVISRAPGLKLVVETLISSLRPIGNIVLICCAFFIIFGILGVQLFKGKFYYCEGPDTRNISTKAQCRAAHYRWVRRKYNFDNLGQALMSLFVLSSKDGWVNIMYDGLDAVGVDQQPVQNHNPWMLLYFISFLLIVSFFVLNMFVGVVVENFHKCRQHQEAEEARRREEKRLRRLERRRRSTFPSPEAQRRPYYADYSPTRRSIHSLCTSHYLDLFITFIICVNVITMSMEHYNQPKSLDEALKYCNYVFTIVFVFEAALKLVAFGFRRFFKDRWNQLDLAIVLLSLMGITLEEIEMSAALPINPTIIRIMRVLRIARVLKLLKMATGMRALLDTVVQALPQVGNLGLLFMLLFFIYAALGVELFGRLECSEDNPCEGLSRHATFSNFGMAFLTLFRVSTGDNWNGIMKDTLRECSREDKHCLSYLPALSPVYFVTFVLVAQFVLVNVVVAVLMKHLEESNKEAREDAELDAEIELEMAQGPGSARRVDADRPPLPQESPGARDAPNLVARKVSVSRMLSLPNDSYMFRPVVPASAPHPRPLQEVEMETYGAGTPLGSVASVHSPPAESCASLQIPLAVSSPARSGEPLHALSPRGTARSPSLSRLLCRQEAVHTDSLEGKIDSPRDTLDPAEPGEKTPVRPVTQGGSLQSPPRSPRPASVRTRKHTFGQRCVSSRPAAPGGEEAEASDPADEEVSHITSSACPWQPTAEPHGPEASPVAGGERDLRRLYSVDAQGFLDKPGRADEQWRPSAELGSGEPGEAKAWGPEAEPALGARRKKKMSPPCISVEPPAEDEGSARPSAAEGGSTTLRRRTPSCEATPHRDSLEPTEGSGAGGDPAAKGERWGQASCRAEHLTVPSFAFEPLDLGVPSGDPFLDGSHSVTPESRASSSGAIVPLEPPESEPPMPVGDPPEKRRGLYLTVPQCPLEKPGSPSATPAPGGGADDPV

EC50 [1]: 6.52 µM (active)
Compound: O=C(CN1CCN(c2ccccn2)CC1)N(c1ccccc1)c1ccc2ccccc2c1

Compound: CCCCC(=O)NNC(=S)NC(=O)c1ccc(C)cc1
EC50 [2]: > 150 µM (inconclusive)
EC50 [3]: 1.43 µM (active)
EC50 [4]: 2.99 µM (active)

EC50 [4]: 1.33 µM (active)
Compound: Cc1cc(-c2ccc(C)c(S(=O)(=O)NCCCN(Cc3ccccc3)C(C)C)c2)on1

EC50 [1]: 2.28 µM (active)
Compound: Cc1ccccc1NC(=O)c1ccc(CN2CCc3ccccc3C2)cc1

AC50 (Cytochrome P450 3A4): 39.8 µM (inconclusive)
Compound: COc1cc(O)c2c(=O)cc(C)oc2c1CC=C(C)C [HETEROPEUCENIN, METHYL ETHER]

Compound: CC1=CC(C)C(C[N+]2(C)CCCCC2)C(C)C1 (stereo unspecified)
IC50 [5]: 6.16 µM (active)
IC50 [6]: 6.31 µM (active)

Compound: Brc1ccc(-c2nnc(-c3ccco3)o2)cc1
AC50 [7]: 46.2 µM (active)

Compound: CCOCCCNc1nc2c(C)cccn2c(=O)c1/C=C1\SC(=S)N(C(C)CC)C1=O (stereo unspecified)
EC50 (BJ [8]): > 150 µM (not active)
EC50 (BJ [9]): > 150 µM (not active)
EC50 (BJ [10]): > 150 µM (inconclusive)
EC50 [11]: 38.5 µM (active)
IC50 [12]: > 80 µM (inactive)

IC50 (Leucine aminopeptidase): 3.84 µM (active)
AC50 (Cytochrome P450 2C9): inconclusive
Compound: COc1ccc(NC(=O)CN2c3cccc4cccc(c34)S2(=O)=O)cc1

Compound: Nc1nc[nH]n1 [AMITROLE]
AC50 (Cytochrome P450 3A4): 15.8 µM (inconclusive)

EC50 [1]: 9.33 µM (active)
Compound: Cc1nn(Cc2ccccc2)c(C)c1NC(=O)c1cc(-c2ccco2)on1

AC50 (Cytochrome P450 2C9): inconclusive
Compound: O=C1Nc2ccc(F)cc2C12SCCS2

EC50 [4]: 4.22 µM (active)
Compound: CCn1c(N)[n+](CC(=O)Nc2ccc(SC(F)F)cc2)c2ccccc21
